US20250171459A1, “2-METHYL-4',5'-DIHYDROSPIRO[PIPERIDINE-4,7'-THIENO[2,3-C]PYRAN] DERIVATIVES AS INHIBITORS OF APOL1 AND METHODS OF USING SAME” (Vertex Pharmaceuticals Incorporated, priority 2022, published 2025)

Target: T1, APOL1 (Homo sapiens, UniProt O14791)
T1 sequence (O14791 1-398 S342G/I384M): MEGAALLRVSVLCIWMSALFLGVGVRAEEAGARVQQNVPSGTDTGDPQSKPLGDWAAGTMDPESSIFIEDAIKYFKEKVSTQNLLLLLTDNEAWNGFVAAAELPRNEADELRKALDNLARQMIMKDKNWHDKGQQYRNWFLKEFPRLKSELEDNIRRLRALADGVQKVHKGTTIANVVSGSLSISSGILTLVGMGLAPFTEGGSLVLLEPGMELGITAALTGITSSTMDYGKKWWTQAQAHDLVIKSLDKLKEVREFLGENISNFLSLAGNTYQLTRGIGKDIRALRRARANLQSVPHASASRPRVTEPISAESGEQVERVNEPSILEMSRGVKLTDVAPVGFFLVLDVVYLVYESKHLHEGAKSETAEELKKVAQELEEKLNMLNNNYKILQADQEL
Test: MultiTox-Fluor Multiplex Cytotoxicity Assay in tet-inducible APOL1 T-REx-HEK293 cells (cell rescue, ratio of dead to live cells)
Type: cell-based
Conditions: tet-inducible transgenic APOL1 T-REx-HEK293 cell lines, 50 ng/mL tet, 24 hours; read-out: IP50 (i.e., IC50 for cell proliferation)
Procedure, shortened: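 T-REx-HEK293 cells with tet-inducible APOL1 were treated with compound (10 μM top, 10-point 3-fold dilution, duplicate) plus 50 ng/mL tetracycline for 24 h at 37° C, in DMEM with 2% tet-free FBS. MultiTox-Fluor protease signals gave a dead/live ratio, normalized to no tet (100% viability) and tet alone (0%).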

| Compound | IC50 |
| --- | --- |
| C[C@H]1C[C@@]2(CCN1C[C@H](O)C(N)=O)OCCc1cc(CC(F)F)sc12 [Compound 611, (2S)-3-[(2′S, 7R)-2-(2,2-difluoroethyl)-2′-methyl-spiro[4,5-dihydrothieno[2,3-c]pyran-7,4′-piperidine]-1′-yl]-2-hydroxy-propanamide] | < 100 nM |
| CCc1cc2c(s1)CCO[C@@]21CCN(Cc2cn(CC3(S(C)(=O)=O)CCOCC3)nn2)[C@@H](C)C1 [Compound 155] | < 100 nM |
| CCc1cc2c(s1)CCO[C@@]21CCN(Cc2ccc(Cl)nc2)[C@@H](C)C1 [Compound 199, (2′S,4R)-1′-[(6-chloro-3-pyridyl)methyl]-2-ethyl-2′-methyl-spiro[6,7-dihydrothieno[3,2-c]pyran-4,4′-piperidine]] | < 100 nM |
| CC(O)c1c(C(F)(F)F)sc2c1CCO[C@@]21CCN(Cc2cnn(CCS(C)(=O)=O)c2)[C@@H](C)C1 (stereo partly shown) [Compound 879] | < 100 nM |
| C=C(CO)n1cc(CN2CC[C@]3(C[C@@H]2C)OCCc2c3sc(C(F)(F)F)c2CO)cn1 [Compound 929, 2-[4-[[(2′S,7R)-3-(hydroxymethyl)-2′-methyl-2-(trifluoromethyl)spiro[4,5-dihydrothieno[2,3-c]pyran-7,4′-piperidine]-1′-yl]methyl]pyrazol-1-yl]prop-2-en-1-ol] | < 100 nM |
| C[C@H]1C[C@@]2(CCN1CC1CCN(S(C)(=O)=O)CC1)OCCc1c2sc(Cl)c1CO [Compound 748] | 100 to 500 nM |
| C[C@@H]1C[C@]2(CCN1Cc1cnn(C)c1)OCCc1cc(Cl)sc12 (stereo in doubt) [Compound 630, (2R,4S)-2′-chloro-2-methyl-1-((1-methyl-1H-pyrazol-4-yl)methyl)-4′,5′-dihydrospiro[piperidine-4,7′-thieno[2,3-c]pyran]] | < 100 nM |
| C[C@H]1C[C@@]2(CCN1Cc1cnn(CC(C)(CO)CO)c1)OCCc1cc(CC(F)F)sc12 [Compound 561, 2-[[4-[[(2′S, 7R)-2-(2,2-difluoroethyl)-2′-methyl-spiro[4,5-dihydrothieno[2,3-c]pyran-7,4′-piperidine]-1′-yl]methyl]pyrazol-1-yl]methyl]-2-methyl-propane-1,3-diol] | < 100 nM |
| CCc1cc2c(s1)CCO[C@@]21CCN(Cc2cn(C3CN(S(=O)(=O)c4cn[nH]c4)C3)nn2)[C@@H](C)C1 [Compound 4] | < 100 nM |
| C[C@H]1C[C@@]2(CCN1C1COC1)OCCc1cc(CC(F)F)sc12 [Compound 575] | 500 to 1000 nM |
| CCc1cc2c(s1)CCOC21CCN(Cc2cn(CC(O)C(C)(C)O)nn2)C(C)C1 (stereo not shown) [Compound 125] | < 100 nM |
| CCc1cc2c(s1)CCO[C@@]21CCN(Cc2cn(CC3(CO)CC3)nn2)[C@@H](C)C1 [Compound 150] | 100 to 500 nM |
| Cc1ccc(CN2CC[C@]3(C[C@@H]2C)OCCc2cc(Cl)sc23)c(C)n1 [Compound 675] | 100 to 500 nM |
| CCc1cc2c(s1)CCO[C@@]21CCN(CC2CN(C(=O)C3CCCCC3)C2)[C@@H](C)C1 [Compound 448] | 100 to 500 nM |
| CCc1cc2c(s1)CCO[C@@]21CCN(CC2CN(C(=O)c3ccc(=O)oc3)C2)[C@@H](C)C1 [Compound 463] | 100 to 500 nM |
| C[C@H]1C[C@@]2(CCN1Cc1cnn(CC3CC4(CC4)C(=O)O3)c1)OCCc1c2sc(C(F)(F)F)c1CO (stereo partly shown) [Compound 981] | < 100 nM |
| CCc1cc2c(s1)CCO[C@@]21CCN(Cc2cn(CC3CCCN(S(C)(=O)=O)C3)nn2)[C@@H](C)C1 (stereo partly shown) [Compound 187] | 100 to 500 nM |
| CCc1cc2c(s1)CCO[C@@]21CCN(C2CCCC2O)[C@@H](C)C1 (stereo partly shown) [Compound 245] | 100 to 500 nM |
| CCc1cc2c(s1)CCOC21CCN(Cc2cn(CC(c3cccnc3)N3CCOCC3)nn2)C(C)C1 (stereo not shown) [Compound 92] | 500 to 1000 nM |
| CCc1cc2c(s1)CCO[C@@]21CCN(C[C@H]2C[C@@H](NC(=O)C3CC(C)(O)C3)C2)[C@@H](C)C1 (stereo partly shown) [Compound 344] | < 100 nM |
| C[C@H]1C[C@@]2(CCN1Cc1cnn(CC(O)C3(CO)CCC3)c1)OCCc1c2sc(C(F)(F)F)c1CO (stereo partly shown) [Compound 935] | < 100 nM |
| C[C@H]1C[C@@]2(CCN1Cc1cnn(CC(O)C(N)=O)c1)OCCc1c2sc(C(F)(F)F)c1CO (stereo partly shown) [Compound 932] | < 100 nM |
